# Experimental data reported in EP4271680B1, “GOLD (I) COMPLEXES WITH FLUORINATED N-HETEROCYCLIC CARBENE LIGANDS AND USE THEREOF AS THERAPEUTIC AGENTS” (priority 2020, dated 2022).
# Like-named read-outs stand apart in the source and are kept apart here.
# What was measured:
# [1] = system: amastigotes axéniques de L. infantum; assay: Anti-leishmanial activity on axenic amastigotes of L. infantum (luciferase luminescence)
# [2] = system: lignée cellulaire Thp1; assay: Cytotoxicity by MTT test on Thp1 cell line; assay type: cell-based, humains
# Procedure: (§1) L'évaluation de la cytotoxicité des complexes selon l'invention par test MTT sur la lignée cellulaire Thp1 (lignée cellulaire de monocytes humains) a été réalisée selon Mosmann avec de légères modifications. En bref, les cellules (0,77.10^5 cellules/ml) dans 200 µL du milieu complet [RPMI 1640 supplémenté avec 10% de sérum de veau fœtal (FCS), 2 mM de L-glutamine et des antibiotiques (100 U/ml) pénicilline et 100 µg/ml de streptomycine)]+ PMA (50 ng/ml) ont été ensemencées dans chaque puits de plaques à 96 puits et incubées à 37°C sous atmosphère humidifiée à 5% de CO2 avec 95% d'air. Après une incubation de 96 h, les plaques ont été lavées 3 fois avec du milieu et 100 µl de milieu ont été ajoutés. Diverses concentrations et contrôles appropriés ont ensuite été ajoutés (100 µl) et les plaques ont été incubées pendant 72 h à 37°C.
# (§2) Chaque puits a ensuite été examiné au microscope pour détecter la formation possible de précipité avant l'aspiration du milieu. Une solution de MTT (0,5 mg/ml dans du RPMI, 100 µl) a ensuite été ajoutée à chaque puits. Les cellules ont été incubées pendant 2 h à 37°C. La solution de MTT a ensuite été éliminée et du DMSO (100 µl) a été ajouté pour dissoudre les cristaux de formazan résultants. Les plaques ont été secouées vigoureusement (300 tr/min) pendant 5 min.
# (§3) L'absorbance a été mesurée à 570 nm avec un spectrophotomètre pour microplaques. Le DMSO a été utilisé comme blanc et la doxorubicine (Sigma Aldrich) comme contrôle positif. Les CC50 ont été calculés par analyse de régression non linéaire traitée sur des courbes dose-réponse, à l'aide du logiciel TableCurve 2D V5.
# [3] = Cytotoxicity by MTT test on Thp1 cell line; assay type: cell-based, humains; settings: human
# Procedure: as §1, §2, §3
# [4] = Tableau 2, CC50 Thp1 / CI50 axenic amastigotes of L. infantum
# [5] = Leishmania infantum, read-out: Amastigotes axéniques de L. infantum CI50, Tableau 2, mean of three independent experiments
# [6] = Leishmania infantum, read-out: Amastigotes axéniques de L. infantum CI50, Tableau 3, separate experiments, mean of three independent experiments
# [7] = Tableau 3, separate experiments, CC50 Thp1 / CI50 axenic amastigotes
# [8] = Tableau 3, separate experiments, mean of three independent experiments, read-out: Thp1 CC50
# [9] = read-out: CC50 sur la lignée cellulaire humaine Thp1
# [10] = Leishmania infantum, read-out: Amastigotes axéniques de L. infantum CI50
# [11] = Tableau 2, 72 h incubation, mean of three independent experiments, read-out: Thp1 CC50
SMILES,"Indice de sélectivité CC50/IC50 SI [1, 4]","IC50 [1, 10] [µM]",further results
FC(F)(F)Oc1ccc(-n2cc[n+](-c3ccc4ccccc4n3)[c]2[Au-][Cl])cc1 [Complexe 31],"136,42",–,–
"C[C@@H]1[C@H](O)[C@@H](C)/C=C/C=C/C=C/C=C/C=C/C=C/C=C/[C@H](O[C@@H]2O[C@H](C)[C@@H](O)[C@H](N)[C@@H]2O)C[C@@H]2O[C@](O)(C[C@@H](O)C[C@@H](O)[C@H](O)CC[C@@H](O)C[C@@H](O)CC(=O)O[C@H]1C)C[C@H](O)[C@H]2C(=O)O [Amphotéricine B, reference compound]","139,87",–,"IC50 [1, 5]: 0.075 µM; IC50 [1, 6]: 0.06 µM; Indice de sélectivité CC50/IC50 SI [1, 7]: 218,83; CC50 [2, 8]: 13.1 µM; CC50 [2, 9]: 10.5 µM"
CC(C)[n+]1ccn(-c2ccc(OC(F)(F)F)cc2)[c]1[Au-][Cl] [Complexe 26],"118,53",–,–
"CC(C)[n+]1ccn(-c2cccc(OC(F)(F)F)c2)c1 [compound 13, Bromurede 3-Isopropyl-1-(3-(trifluorométhoxy)phényl)-1H-imidazol-3-ium]",–,> 50,–
COc1cccc2c1C(=O)c1c(O)c3c(c(O)c1C2=O)C[C@@](O)(C(=O)CO)C[C@@H]3O[C@H]1C[C@H](N)[C@H](O)[C@H](C)O1 [Doxorubicine],–,–,"CC50 at 72 h [3, 11]: 0.7 µM; CC50 at 72 h [3, 8]: 0.7 µM"
FC(F)(F)Oc1cccc(-n2cc[n+](Cc3ccccc3)[c]2[Au-][Cl])c1 [Complexe 23],"62,55",–,–
"FC(F)(F)Oc1ccc(-n2cc[n+](-c3ccc4ccccc4n3)c2)cc1 [compound 16, Chlorurede 3-(Quinolin-2-yl)-1-(4-(trifluoromethoxy)phenyl)-1H-imidazol-3-ium]",–,> 50,–
"CC(C)[n+]1ccn(-c2cc(C(F)(F)F)cc(C(F)(F)F)c2)c1 [compound 12, Bromurede 1-(3,5-Bis(trifluorométhyl)phényl)-3-isopropyl-1H-imidazol-3-ium]",–,> 50,–
"FC(F)(F)c1cc(-n2cc[n+](-c3ccc4ccccc4n3)c2)cc(C(F)(F)F)c1 [compound 17, Chlorurede 1-(3,5-Bis(trifluoromethyl)phenyl)-3-(quinolin-2-yl)-1H-imidazol-3-ium]","3,07",–,"IC50 [1, 5]: 14.5 µM; activité anti-leishmanienne (in words) ([1]; axenic amastigotes of L. infantum): modérément actif; toxicité (in words) [2]: plutôt toxique"
"FC(F)(F)c1cc(-n2cc[n+](Cc3ccccc3)c2)cc(C(F)(F)F)c1 [compound 7, Chlorurede 3-Benzyl-1-(3,5-bis(trifluoromethyl)phenyl)-1H-imidazol-3-ium]",–,–,"IC50 ([1]; read-out: Amastigotes axéniques de L. infantum CI50, Tableau 2, mean of three independent experiments): > 50 µM"
"Fc1ccc(-n2cc[n+](-c3ccc4ccccc4n3)c2)cc1 [compound 19, Chlorurede 1-(4-Fluorophenyl)-3-(quinolin-2-yl)-1H-imidazol-3-ium]",–,> 50,–
"CC(C)[n+]1ccn(-c2ccc(F)cc2)c1 [compound 14, Bromurede 1-(4-Fluorophényl)-3-isopropyl-1H-imidazol-3-ium]",–,> 50,–
FC(F)(F)c1ccc(-n2cc[n+](-c3ccc4ccccc4n3)[c]2[Au-][Cl])cc1 [Complexe 35],"130,05",–,–
"N=C(N)c1ccc(OCCCCCOc2ccc(C(=N)N)cc2)cc1 [Pentamidine, reference compound]",">4,74",–,"IC50 [1, 5]: 10.5 µM; IC50 [1, 6]: 1.36 µM; Indice de sélectivité CC50/IC50 SI ([1]; Tableau 2, CC50 Thp1 / CI50 axenic amastigotes of L. infantum, listed as pentamidine): > 4,74; Indice de sélectivité CC50/IC50 SI [1, 7]: 48.43; CC50 at 72 h [3, 11]: > 50 µM; CC50 at 72 h [3, 8]: 65.9 ± 7.49 µM; CC50 at 72 h [3, 9]: > 50 µM"
"FC(F)(F)Oc1cccc(-n2cc[n+](Cc3ccccc3)c2)c1 [compound 8, Chlorurede 3-Benzyl-1-(3-(trifluoromethoxy)phenyl)-1H-imidazol-3-ium chloride]",–,> 50,–
FC(F)(F)Oc1ccc(-n2cc[n+](Cc3ccccc3)[c]2[Au-][Cl])cc1 [Complexe 21],"67,85",–,–
CC(C)[n+]1ccn(-c2ccc(F)cc2)[c]1[Au-][Cl] [Complexe 29],"178,50",–,–
"FC(F)(F)Oc1cccc(-n2cc[n+](-c3ccc4ccccc4n3)c2)c1 [compound 18, Chlorurede 3-(Quinolin-2-yl)-1-(3-(trifluoromethoxy)phenyl)-1H-imidazol-3-ium]",–,> 50,–

SMILES,"Indice de sélectivité CC50/IC50 SI [1, 4]","IC50 [1, 10] [µM]",further results
CC(=O)OCC1OC([S][Au-][c]2n(-c3ccc(F)cc3)cc[n+]2C(C)C)C(OC(C)=O)C(OC(C)=O)C1OC(C)=O (centres unmarked) [Complexe 40],13.43,–,–
FC(F)(F)c1ccc(-n2cc[n+](-c3ccc4ccccc4n3)c2)cc1 [compound 20],–,> 50,–
FC(F)(F)Oc1cccc(-n2cc[n+](-c3ccc4ccccc4n3)[c]2[Au-][Cl])c1 [Complexe 33],"129,70",–,–
CC(=O)OCC1OC([S][Au-][c]2n(-c3cccc(OC(F)(F)F)c3)cc[n+]2Cc2ccccc2)C(OC(C)=O)C(OC(C)=O)C1OC(C)=O (centres unmarked) [Complexe 38],"23,15",–,–
"FC(F)(F)Oc1ccc(-n2cc[n+](Cc3ccccc3)c2)cc1 [compound 6, Chlorurede 3-Benzyl-1-(4-(trifluorométhoxy)phényl)-1H-imidazol-3-ium]",–,> 50,–
CC(=O)OCC1OC([S][Au-][c]2n(-c3cc(C(F)(F)F)cc(C(F)(F)F)c3)cc[n+]2C(C)C)C(OC(C)=O)C(OC(C)=O)C1OC(C)=O (centres unmarked) [Complexe 39],"18,79",–,–
FC(F)(F)c1cc(-n2cc[n+](Cc3ccccc3)[c]2[Au-][Cl])cc(C(F)(F)F)c1 [Complexe 22],"47,09",–,–
CC(C)[n+]1ccn(-c2cccc(OC(F)(F)F)c2)[c]1[Au-][Cl] [Complexe 28],178.52,–,–
Fc1ccc(-n2cc[n+](-c3ccc4ccccc4n3)[c]2[Au-][Cl])cc1 [Complexe 34],"474,17",–,–
"CCCCCCCCCCCCCCCCOP(=O)([O-])OCC[N+](C)(C)C [Miltéfosine, reference compound]","49,32",–,"IC50 [1, 5]: 0.71 µM; IC50 [1, 6]: 0.46 µM; Indice de sélectivité CC50/IC50 SI ([1]; Tableau 2, CC50 Thp1 / CI50 axenic amastigotes of L. infantum, listed as miltéfosine): 53,06; Indice de sélectivité CC50/IC50 SI [1, 7]: 76,13; CC50 [2, 8]: 35 µM; CC50 [2, 9]: 35 µM"
"FC(F)(F)c1ccc(-n2cc[n+](Cc3ccccc3)c2)cc1 [compound 10, Chlorurede 3-Benzyl-1-(4-(trifluoromethyl)phenyl)-1H-imidazol-3-ium chloride]",–,> 50,–
"CSc1ccc(OCc2ncc([N+](=O)[O-])n2C)cc1 [Fexinidazole, reference compound]",">104,41",3.4,"Indice de sélectivité CC50/IC50 SI ([1]; Tableau 2, CC50 Thp1 / CI50 axenic amastigotes of L. infantum, listed as fexinidazole): > 104,41; CC50 at 72 h [3, 11]: > 355 µM; CC50 at 72 h [3, 9]: > 355 µM"
"Fc1ccc(-n2cc[n+](Cc3ccccc3)c2)cc1 [compound 9, Chlorurede 3-Benzyl-1-(4-fluorophenyl)-1H-imidazol-3-ium chloride]",–,> 50,–
CC(=O)OCC1OC([S][Au-][c]2n(-c3cc(C(F)(F)F)cc(C(F)(F)F)c3)cc[n+]2Cc2ccccc2)C(OC(C)=O)C(OC(C)=O)C1OC(C)=O (centres unmarked) [Complexe 37],"30,63",–,–
"CC(C)[n+]1ccn(-c2ccc(C(F)(F)F)cc2)c1 [compound 15, Bromurede 3-Isopropyl-1-(4-(trifluoromethyl)phenyl)-1H-imidazol-3-ium]",–,> 50,–
CC(=O)OCC1OC([S][Au-][c]2n(-c3ccc(OC(F)(F)F)cc3)cc[n+]2Cc2ccccc2)C(OC(C)=O)C(OC(C)=O)C1OC(C)=O (centres unmarked) [Complexe 36],"53,92",–,–
CC(C)[n+]1ccn(-c2cc(C(F)(F)F)cc(C(F)(F)F)c2)[c]1[Au-][Cl] [Complexe 27],"119,72",–,–
"CC(C)[n+]1ccn(-c2ccc(OC(F)(F)F)cc2)c1 [compound 11, Bromurede 3-Isopropyl-1-(4-(trifluorométhoxy)phényl)-1H-imidazol-3-ium]",–,> 50,–
